Measured values from US7754716B2, “Combination comprising a vasculostatic compound and an alkylating agent for the treatment of a tumor” (Novartis AG, priority 2002, dated 2010).

Tested on: recurrent glioblastoma
Assay: Treatment of a patient with recurrent glioblastoma with temozolomide plus PTK787
Assay type: in vivo, human
Details: one patient with histologically confirmed recurrent glioblastoma; temozolomide 50 mg/m^2 daily for 5 consecutive days every 28 days in addition to continuous daily dose of 1000 mg PTK787; observed during the third cycle
Description: Suitable clinical studies are, for example, randomized, double-blind, placebo-controlled, parallel studies in patients with recurrent glioblastoma, but also dose escalation studies. […] Tumor assessment in the form of dynamic contrast-enhanced MRI is also a suitable approach to determine the effect of the COMBINATION OF THE INVENTION. In a suitable study design, patients are receiving, for example, temozolomide in a dosage of 50 to 250 mg/m^2 daily, for example, 200 mg/m^2 daily, for 5 consecutive days every 28 days or placebo in addition to a continuous daily dose of 500 to 2000 mg of a compound of formula I, e.g., 500, 1000, 1500 or 2000 mg of PTK787 or placebo.

## Clc1ccc(Nc2nnc(Cc3ccncc3)c3ccccc23)cc1 [PTK787]
  disease status observed under treatment: stable disease
